According to paper PMC7714403 (JCI Insight, 2020):
Where two headings read alike, the source gives them in different places.

How the values were obtained:
Experiment in all cases: KiNativ, MOLM13 live cells
Assay type in all cases: cell-based
HPK1 = HPK1 (Homo sapiens, UniProt Q92918); details: MOLM-13, 2 h, 100 nM
Description: (§1) Samples were analyzed by KiNativ in situ kinase profiling by ActivX Biosciences.

TBK1 = TBK1 (Homo sapiens, UniProt Q9UHD2); details: MOLM-13; 100 nM, 2 hours; Lys1; read-out: Inhibition vs DMSO
Description: as §1

FER = FER (Homo sapiens, UniProt P16591); details: MOLM-13, 2 h, 100 nM
Description: as §1

MSK1 domain1 = target: T1, MSK1 domain1 (Homo sapiens, UniProt O75582); details: MOLM-13; 100 nM, 2 hours; Lys2; read-out: Inhibition vs DMSO
T1 construct: MSK1 domain1
Description: as §1

MAST3 = MAST3 (Homo sapiens, UniProt O60307); details: MOLM-13; 100 nM, 2 hours; Lys2; read-out: Inhibition vs DMSO
Description: as §1

IRAK4 = target: T2, IRAK4 (Homo sapiens, UniProt Q9NWZ3); details: 100 nM, 2 hours
T2 sequence (Q9NWZ3 1-460): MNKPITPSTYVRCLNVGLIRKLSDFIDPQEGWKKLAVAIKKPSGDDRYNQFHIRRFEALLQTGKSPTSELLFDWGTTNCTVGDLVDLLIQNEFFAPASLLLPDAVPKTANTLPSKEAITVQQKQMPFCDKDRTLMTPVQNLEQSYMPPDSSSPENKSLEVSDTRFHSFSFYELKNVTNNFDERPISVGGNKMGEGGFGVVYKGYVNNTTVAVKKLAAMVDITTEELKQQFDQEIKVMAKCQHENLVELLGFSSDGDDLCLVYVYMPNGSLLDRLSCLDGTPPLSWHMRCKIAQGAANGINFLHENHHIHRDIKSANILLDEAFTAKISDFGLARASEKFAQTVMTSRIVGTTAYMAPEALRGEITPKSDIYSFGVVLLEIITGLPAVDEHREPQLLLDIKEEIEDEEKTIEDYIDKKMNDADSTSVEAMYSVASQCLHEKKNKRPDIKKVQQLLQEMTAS
Description: as §1

FES = FES (Homo sapiens, UniProt P07332); details: MOLM-13; 100 nM, 2 hours; Lys1; read-out: Inhibition vs DMSO
Description: as §1

LATS2 = target: T3, LATS2 (Homo sapiens, UniProt Q9NRM7); details: 100 nM, 2 hours
T3 sequence (Q9NRM7 1-1088): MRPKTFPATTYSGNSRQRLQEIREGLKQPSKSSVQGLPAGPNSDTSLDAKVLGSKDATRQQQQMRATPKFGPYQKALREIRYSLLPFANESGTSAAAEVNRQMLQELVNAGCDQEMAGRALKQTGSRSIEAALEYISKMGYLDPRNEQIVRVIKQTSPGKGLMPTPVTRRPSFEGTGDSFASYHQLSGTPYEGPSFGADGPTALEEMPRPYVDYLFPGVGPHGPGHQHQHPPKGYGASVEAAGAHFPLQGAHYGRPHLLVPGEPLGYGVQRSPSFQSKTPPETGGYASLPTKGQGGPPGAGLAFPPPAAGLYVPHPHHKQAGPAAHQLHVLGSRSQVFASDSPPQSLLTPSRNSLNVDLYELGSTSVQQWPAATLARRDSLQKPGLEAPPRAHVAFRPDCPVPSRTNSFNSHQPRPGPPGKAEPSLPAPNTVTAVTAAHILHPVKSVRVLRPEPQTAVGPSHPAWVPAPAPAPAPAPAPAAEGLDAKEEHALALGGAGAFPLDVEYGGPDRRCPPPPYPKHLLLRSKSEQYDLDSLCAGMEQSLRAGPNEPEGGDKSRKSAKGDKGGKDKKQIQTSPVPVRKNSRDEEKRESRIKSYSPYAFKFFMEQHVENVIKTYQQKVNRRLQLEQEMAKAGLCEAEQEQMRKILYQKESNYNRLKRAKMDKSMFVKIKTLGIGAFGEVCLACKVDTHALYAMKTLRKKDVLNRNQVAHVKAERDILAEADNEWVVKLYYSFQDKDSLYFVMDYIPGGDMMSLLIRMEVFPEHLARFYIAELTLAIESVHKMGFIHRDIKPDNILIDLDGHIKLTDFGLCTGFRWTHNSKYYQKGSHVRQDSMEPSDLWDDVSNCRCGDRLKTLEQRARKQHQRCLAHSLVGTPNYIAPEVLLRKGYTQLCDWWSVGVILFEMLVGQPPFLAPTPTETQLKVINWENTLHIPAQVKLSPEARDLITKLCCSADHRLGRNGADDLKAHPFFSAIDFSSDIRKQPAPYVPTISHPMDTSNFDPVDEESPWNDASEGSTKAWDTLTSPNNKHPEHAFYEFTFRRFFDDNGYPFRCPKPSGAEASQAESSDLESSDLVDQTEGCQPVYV
Description: as §1

MAP2K5 = MAP2K5 (Homo sapiens, UniProt Q13163); details: MOLM-13; 100 nM, 2 hours; Lys2; read-out: Inhibition vs DMSO
Description: as §1

ACK = ACK (Homo sapiens, UniProt Q07912); details: MOLM-13; 100 nM, 2 hours; Lys1; read-out: Inhibition vs DMSO
Description: as §1

BRAF = BRAF (Homo sapiens, UniProt P15056); details: MOLM-13; 100 nM, 2 hours; Lys2; read-out: Inhibition vs DMSO
Description: as §1

p70S6Kb = p70S6Kb (Homo sapiens, UniProt Q9UBS0); details: MOLM-13, 2 h, 100 nM
Description: as §1

TYK2 domain2 = target: T4, TYK2 domain2 (Homo sapiens, UniProt P29597); details: 100 nM, 2 hours; Activation Loop
T4 construct: TYK2 domain2
Description: as §1

MAP3K3 = MAP3K3 (Homo sapiens, UniProt Q99759); details: MOLM-13; 100 nM, 2 hours; Lys1; read-out: Inhibition vs DMSO
Description: as §1

RAF1 = RAF1 (Homo sapiens, UniProt P04049); details: MOLM-13; 100 nM, 2 hours; Lys2; read-out: Inhibition vs DMSO
Description: as §1

PIP4K2A = PIP4K2A (Homo sapiens, UniProt P48426); details: MOLM-13; 100 nM, 2 hours; ATP; read-out: Inhibition vs DMSO
Description: as §1

AKT1 = AKT1 (Homo sapiens, UniProt P31749); details: MOLM-13; 100 nM, 2 hours; ATP Loop; read-out: Inhibition vs DMSO
Description: as §1

GSK3B = GSK3B (Homo sapiens, UniProt P49841); details: MOLM-13; 100 nM, 2 hours; Lys2; read-out: Inhibition vs DMSO
Description: as §1

[1] = Lys1, read-out: Inhibition vs DMSO
[2] = Lys2, read-out: Inhibition vs DMSO

Chain of HPK1 (Q92918 whole entry): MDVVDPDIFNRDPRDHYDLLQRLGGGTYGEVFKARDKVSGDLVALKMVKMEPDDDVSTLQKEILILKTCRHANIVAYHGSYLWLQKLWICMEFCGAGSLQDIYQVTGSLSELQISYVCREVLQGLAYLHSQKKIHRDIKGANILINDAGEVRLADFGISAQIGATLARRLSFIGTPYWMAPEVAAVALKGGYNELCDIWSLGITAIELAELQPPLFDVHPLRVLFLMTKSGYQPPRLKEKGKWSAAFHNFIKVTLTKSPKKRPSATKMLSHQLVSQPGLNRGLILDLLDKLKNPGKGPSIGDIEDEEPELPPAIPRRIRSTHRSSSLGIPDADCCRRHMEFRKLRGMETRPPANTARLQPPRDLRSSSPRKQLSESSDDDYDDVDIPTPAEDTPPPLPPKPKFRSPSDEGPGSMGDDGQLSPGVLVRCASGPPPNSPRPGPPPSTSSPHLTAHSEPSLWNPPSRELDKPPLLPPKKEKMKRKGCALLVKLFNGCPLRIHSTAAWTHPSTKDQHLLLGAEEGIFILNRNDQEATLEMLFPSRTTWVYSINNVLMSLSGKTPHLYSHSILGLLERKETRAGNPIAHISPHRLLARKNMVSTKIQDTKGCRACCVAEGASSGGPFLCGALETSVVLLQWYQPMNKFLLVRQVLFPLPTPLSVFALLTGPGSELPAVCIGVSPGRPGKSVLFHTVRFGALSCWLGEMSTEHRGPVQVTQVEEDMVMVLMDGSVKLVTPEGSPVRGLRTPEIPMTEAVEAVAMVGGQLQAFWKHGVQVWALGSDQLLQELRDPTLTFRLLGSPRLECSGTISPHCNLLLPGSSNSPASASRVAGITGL
Chain of p70S6Kb (Q9UBS0 whole entry): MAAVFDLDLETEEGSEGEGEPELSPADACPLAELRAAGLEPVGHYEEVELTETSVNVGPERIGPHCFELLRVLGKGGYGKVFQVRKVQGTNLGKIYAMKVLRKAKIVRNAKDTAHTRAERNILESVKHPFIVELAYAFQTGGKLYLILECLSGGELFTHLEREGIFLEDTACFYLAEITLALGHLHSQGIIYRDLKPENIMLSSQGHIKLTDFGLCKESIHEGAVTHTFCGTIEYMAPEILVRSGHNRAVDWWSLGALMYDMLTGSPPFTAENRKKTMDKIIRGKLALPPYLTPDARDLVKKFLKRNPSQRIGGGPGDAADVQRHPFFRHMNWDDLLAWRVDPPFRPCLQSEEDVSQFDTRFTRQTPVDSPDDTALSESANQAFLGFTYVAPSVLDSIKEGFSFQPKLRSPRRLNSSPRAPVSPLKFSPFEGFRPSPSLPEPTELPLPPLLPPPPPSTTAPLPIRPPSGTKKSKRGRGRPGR
Chain of FER (P16591 whole entry): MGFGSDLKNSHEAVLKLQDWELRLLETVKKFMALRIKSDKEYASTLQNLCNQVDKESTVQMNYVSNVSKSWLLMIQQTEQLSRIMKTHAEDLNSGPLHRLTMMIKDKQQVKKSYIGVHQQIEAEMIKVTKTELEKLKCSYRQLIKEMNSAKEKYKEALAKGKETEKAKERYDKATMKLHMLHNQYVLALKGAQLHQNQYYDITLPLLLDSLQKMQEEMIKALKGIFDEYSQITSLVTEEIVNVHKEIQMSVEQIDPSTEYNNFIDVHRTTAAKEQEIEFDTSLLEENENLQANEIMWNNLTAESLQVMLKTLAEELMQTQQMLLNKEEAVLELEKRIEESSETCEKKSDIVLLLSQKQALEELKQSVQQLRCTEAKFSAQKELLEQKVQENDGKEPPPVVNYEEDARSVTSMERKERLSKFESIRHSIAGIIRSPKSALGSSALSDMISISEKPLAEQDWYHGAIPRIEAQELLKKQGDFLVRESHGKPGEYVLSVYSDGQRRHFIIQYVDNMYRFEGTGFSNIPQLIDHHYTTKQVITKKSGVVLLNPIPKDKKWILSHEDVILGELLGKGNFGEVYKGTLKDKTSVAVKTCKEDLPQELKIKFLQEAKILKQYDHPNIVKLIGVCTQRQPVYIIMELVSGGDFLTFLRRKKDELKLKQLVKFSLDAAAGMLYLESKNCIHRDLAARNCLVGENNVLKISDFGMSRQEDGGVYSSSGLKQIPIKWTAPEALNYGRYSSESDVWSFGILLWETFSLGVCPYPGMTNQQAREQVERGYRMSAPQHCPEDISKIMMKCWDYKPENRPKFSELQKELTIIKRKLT
Chain of MAP2K5 (Q13163 whole entry): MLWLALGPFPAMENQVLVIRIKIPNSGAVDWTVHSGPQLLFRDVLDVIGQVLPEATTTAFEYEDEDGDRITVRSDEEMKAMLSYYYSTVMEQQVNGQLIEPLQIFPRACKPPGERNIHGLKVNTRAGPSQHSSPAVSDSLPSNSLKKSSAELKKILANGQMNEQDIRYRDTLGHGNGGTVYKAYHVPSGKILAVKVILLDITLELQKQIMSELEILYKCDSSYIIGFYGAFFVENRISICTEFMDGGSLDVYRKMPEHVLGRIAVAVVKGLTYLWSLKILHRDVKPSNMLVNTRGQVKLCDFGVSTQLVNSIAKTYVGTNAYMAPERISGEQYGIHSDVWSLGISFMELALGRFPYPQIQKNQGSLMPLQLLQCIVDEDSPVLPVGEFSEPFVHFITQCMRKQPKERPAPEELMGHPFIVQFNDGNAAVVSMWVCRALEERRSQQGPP
Chain of FES (P07332 whole entry): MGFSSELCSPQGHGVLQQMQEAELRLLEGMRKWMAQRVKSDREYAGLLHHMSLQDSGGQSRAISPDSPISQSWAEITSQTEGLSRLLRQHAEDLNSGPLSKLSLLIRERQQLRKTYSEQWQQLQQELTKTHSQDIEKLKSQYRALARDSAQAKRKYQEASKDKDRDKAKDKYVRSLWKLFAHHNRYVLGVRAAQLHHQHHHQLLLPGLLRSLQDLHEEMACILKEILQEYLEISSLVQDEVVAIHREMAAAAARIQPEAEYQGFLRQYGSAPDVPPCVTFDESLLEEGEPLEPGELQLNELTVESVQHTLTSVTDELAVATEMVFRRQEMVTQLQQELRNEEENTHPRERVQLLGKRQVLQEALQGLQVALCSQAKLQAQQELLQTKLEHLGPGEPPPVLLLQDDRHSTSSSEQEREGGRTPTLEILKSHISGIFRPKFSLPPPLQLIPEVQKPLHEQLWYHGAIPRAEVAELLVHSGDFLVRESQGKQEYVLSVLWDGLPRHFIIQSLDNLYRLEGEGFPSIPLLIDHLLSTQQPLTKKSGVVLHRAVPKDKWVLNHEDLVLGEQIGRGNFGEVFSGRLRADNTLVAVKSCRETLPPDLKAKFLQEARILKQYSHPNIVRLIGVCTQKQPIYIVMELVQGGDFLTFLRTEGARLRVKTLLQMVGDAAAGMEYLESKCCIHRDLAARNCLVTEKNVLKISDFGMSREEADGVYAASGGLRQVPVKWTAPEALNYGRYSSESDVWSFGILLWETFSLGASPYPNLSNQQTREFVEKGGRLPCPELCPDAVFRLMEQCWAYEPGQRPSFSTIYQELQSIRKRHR
Chain of MAST3 (O60307 whole entry): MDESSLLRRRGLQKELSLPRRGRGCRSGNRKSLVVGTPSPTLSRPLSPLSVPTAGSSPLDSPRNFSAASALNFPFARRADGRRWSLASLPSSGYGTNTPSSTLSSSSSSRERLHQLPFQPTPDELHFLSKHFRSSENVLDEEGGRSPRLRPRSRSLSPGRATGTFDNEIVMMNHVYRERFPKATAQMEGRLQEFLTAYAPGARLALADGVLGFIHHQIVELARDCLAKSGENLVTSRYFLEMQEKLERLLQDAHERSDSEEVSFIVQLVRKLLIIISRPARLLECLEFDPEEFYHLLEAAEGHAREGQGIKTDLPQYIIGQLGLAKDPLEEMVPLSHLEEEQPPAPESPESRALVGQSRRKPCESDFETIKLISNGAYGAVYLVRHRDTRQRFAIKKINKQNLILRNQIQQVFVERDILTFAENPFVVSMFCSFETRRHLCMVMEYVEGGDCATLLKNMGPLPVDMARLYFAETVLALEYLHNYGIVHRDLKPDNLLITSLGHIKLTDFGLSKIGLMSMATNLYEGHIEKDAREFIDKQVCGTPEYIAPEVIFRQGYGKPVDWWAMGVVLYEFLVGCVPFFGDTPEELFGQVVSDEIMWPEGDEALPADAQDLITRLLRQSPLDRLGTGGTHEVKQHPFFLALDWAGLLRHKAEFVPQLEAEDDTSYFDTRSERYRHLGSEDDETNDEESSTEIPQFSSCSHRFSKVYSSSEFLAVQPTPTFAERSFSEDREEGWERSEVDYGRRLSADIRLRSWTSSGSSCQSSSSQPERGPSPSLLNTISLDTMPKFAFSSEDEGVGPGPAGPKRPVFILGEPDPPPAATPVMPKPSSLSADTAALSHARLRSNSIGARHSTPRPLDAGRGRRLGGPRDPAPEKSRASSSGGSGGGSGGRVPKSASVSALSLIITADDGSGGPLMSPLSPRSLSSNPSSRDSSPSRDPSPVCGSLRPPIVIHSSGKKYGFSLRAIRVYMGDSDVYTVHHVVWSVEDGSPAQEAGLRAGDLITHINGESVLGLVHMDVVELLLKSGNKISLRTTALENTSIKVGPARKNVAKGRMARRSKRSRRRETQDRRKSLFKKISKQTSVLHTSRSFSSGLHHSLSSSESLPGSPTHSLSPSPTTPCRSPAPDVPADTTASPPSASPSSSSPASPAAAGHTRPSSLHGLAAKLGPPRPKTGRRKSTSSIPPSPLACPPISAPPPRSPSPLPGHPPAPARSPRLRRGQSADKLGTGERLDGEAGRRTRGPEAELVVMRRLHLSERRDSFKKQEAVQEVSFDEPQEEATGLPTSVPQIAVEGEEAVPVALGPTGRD

CN1CCN(Cc2ccc(Nc3ncc(Cl)c(Nc4ccccc4S(=O)(=O)N(C)C)n3)cc2)CC1 [TP-0903]
inhibition at 0.1 µM (HPK1; [1]): 58.7%
inhibition at 0.1 µM (HPK1; [2]): 55.7%
inhibition at 0.1 µM (TBK1): 82.3%
inhibition at 0.1 µM (FER; Activation Loop, read-out: Inhibition vs DMSO): 43.4%
inhibition at 0.1 µM (FER; [1]): 19.2%
inhibition at 0.1 µM (MSK1 domain1): -10.3%
inhibition at 0.1 µM (MAST3): -22.3%
Inhibition vs DMSO (IRAK4; Lys1): 13.2%
Inhibition vs DMSO (IRAK4; Lys2): 18.7%
inhibition at 0.1 µM (FES): 1%
Inhibition vs DMSO (LATS2; Lys1): 7.9%
Inhibition vs DMSO (LATS2; Lys2): -14.6%
inhibition at 0.1 µM (MAP2K5): -1.6%
inhibition at 0.1 µM (ACK): 44.5%
inhibition at 0.1 µM (BRAF): 16.8%
inhibition at 0.1 µM (p70S6Kb; [1]): 10.1%
inhibition at 0.1 µM (p70S6Kb; [2]): -12.6%
Inhibition vs DMSO (TYK2 domain2): -0.9%
inhibition at 0.1 µM (MAP3K3): 13%
inhibition at 0.1 µM (RAF1): 0.349%
inhibition at 0.1 µM (PIP4K2A): -28.1%
inhibition at 0.1 µM (AKT1): -54.3%
inhibition at 0.1 µM (GSK3B): -11.3%
